The subject of assay [1] is NF-κB associated genes in CD4+ T cells. Put plainly: RNA-Seq of peripheral CD4+ T cells pre- and post-AZD5582. In kind it is in vivo, rhesus macaque. Here is the method: Treatment with AZD5582 in SIV-infected, ART-suppressed adult RMs upregulates key genes associated with signaling through the ncNF-kB pathway, rather than the canonical NF-κB (cNF-kB) pathway in CD4^+ T cells ([17]). Here, we performed RNA-Seq in total CD4^+ T cells isolated from the peripheral blood of AZD5582-treated infant macaques at baseline (pre-dose 1) and the end of the treatment period (post-dose 10).
RNA-sequencing (RNA-seq) analysis was conducted at the Yerkes Nonhuman Primate Genomics Core Laboratory (http://www.yerkes.emory.edu/nhp_genomics_core/). RNA was purified from 50,000 peripheral blood-derived CD4^+ T cells purified by negative selection and lysed in 350 μL of RLT buffer at −80°C, using Qiagen Micro RNEasy columns, and RNA quality was assessed using an Agilent Bioanalyzer. Following this, 2 ng of total RNA was used as input for mRNA amplification using 5′ template switch PCR with the Clontech SMART-seq v4 Ultra Low Input RNA kit according to the manufacturer’s instructions. Amplified mRNA was fragmented and appended with dual-index bar codes using Illumina NexteraXT DNA library preparation kits. Libraries were validated by capillary electrophoresis on an Agilent 4200 TapeStation, pooled and sequenced on an Illumina HiSeq 3000 using 100-bp single reads at an average depth of 25 million reads. Alignment was performed using STAR version 2.7.3a ([36]) and transcripts were annotated using a composite reference of rhesus macaque (Mmul10 Ensembl release 100).
Statistical analyses were performed using GraphPad Prism Software (v.7 or v.8). P ≤ 0.05 was considered statistically significant. To compare differences in pre-ART viral loads between experimental groups in Fig. 2D and SIV DNA levels in Fig. 3C a two-sided Mann-Whitney test was used. To test the statistical significance observed in Ki67 expression on memory CD4^+ and CD8^+ T cells in Fig. 3B, BIRC3, NFKB2 gene expression in Fig. 6A and B, and SIV RNA expression in Fig. 6C and D. A Wilcoxon matched-pairs signed-rank test was used. For RNA-seq analysis in Fig. 5, RNA-seq data were mapped to the NCBI Mmul10 assembly of the Indian rhesus macaque genome, and alignment was performed with STAR (v.2.7.3a) using Ensemble release 100 annotations as a transcript annotation and splice junction reference. Transcript abundance estimates were calculated internal to the STAR aligner using the algorithm of htseq-count ([37]). DESeq2 ([38]) was used for normalization and differential expression analysis. Gene set enrichment analysis ([39]) (GSEA), performed with the GSEA desktop module (available at https://www.broadinstitute.org/gsea/) and the Molecular Signatures Database (MSigDB), was used to determine pathway/gene set enrichment. Heat maps, volcano plots, and principal-component analysis plots were generated with the R (v 3.6.0) package ggplot2.

The test system of the next assay is memory CD4+ T cells. Put plainly: Ki67 expression by whole blood flow cytometry, memory CD4+ T cells. In kind it is in vivo, rhesus macaque. As to conditions: for Ki67 expression in memory CD4+ T cells: AZD5582 treated infant RMs. Here is the method: (§1) The ncNF-κB pathway plays an important role in regulating T cell differentiation without causing broad systemic inflammation ([22]). We have previously observed a stimulatory effect on peripheral T cells following AZD5582 treatment specifically measurable through increased intracellular Ki67 expression ([17]). To further assess the effect of AZD5582 on infant RMs, flow cytometry was performed longitudinally on whole blood on the day of doses 1, 3, 6, and 9 and both 48 to 72h and 7 days after each of these doses. These time points were selected to allow longitudinal evaluation while remaining within blood volume constraints.
(§2) Multicolor flow cytometric analysis was performed on whole blood (WB) or cell suspensions using predetermined optimal concentrations of the following fluorescently conjugated monoclonal antibodies (MAbs). For WB T cell analysis the following MAbs were used: CD3-allophycocyanin (APC)-Cy7 (clone SP34-2), CD95-phycoerythrin (PE)-Cy5 (clone DX2), Ki67-AF700 (clone B56), HLA-DR-peridinin chlorophyll protein (PerCP)-Cy5.5 (clone G46-6), CCR7-fluorescein isothiocyanate (FITC) (clone 150503), CCR5-APC (clone 3A9), CD62L (clone SK11), and CD45-RA-PE-Cy7 (clone L45) from BD Biosciences; CD8-BV711 (clone RPA-T8), CD4-BV650 (clone OKT4), and PD-1-BV421 (clone EH12.2H7) from BioLegend; and CD28-ECD (clone CD28-2) from Beckman-Coulter. Flow cytometric acquisition and analysis of samples were performed on at least 100,000 events on an AURORA flow cytometer driven by the SpectroFlo software package (Cytek). Analyses of the acquired data were performed using FlowJo version 10.0.4 software (TreeStar).

The test system of another assay is memory CD8+ T cells. Put plainly: Ki67 expression by whole blood flow cytometry, memory CD8+ T cells. The settings on record: for Ki67 expression in memory CD8+ T cells: AZD5582 treated infant RMs. It is filed as in vivo, rhesus macaque. On the procedure: as §1, §2
Background: Flow cytometry measures light scatter and fluorescence of single cells or particles in a stream.

The test system of another assay is SIVmac239. Details: method as in PMID 31969707. As to conditions: adult RMs; cited from earlier work.
Where [2] appears, read: infant RMs, CD4+ T cells, post-dose 10 vs pre-dose 1.
Setting [3] is: before the increase seen after dose 1.
The mark [4] stands for this setting: baseline (immediately before doses 1, 3, 6, 9).
Where [5] appears, read: relative to three baseline measurements, treated infant RMs.

Each structure is given as a SMILES string.

Regarding `CN[C@@H](C)C(=O)N[C@H](C(=O)N1CCC[C@H]1C(=O)N[C@H]1c2ccccc2C[C@H]1OCC#CC#CCO[C@@H]1Cc2ccccc2[C@@H]1NC(=O)[C@@H]1CCCN1C(=O)[C@@H](NC(=O)[C@H](C)NC)C1CCCCC1)C1CCCCC1` [AZD5582], the “BIRC3 and BIRC5 expression in CD4+ T cells” value in assay [1] (AZD5582 treated infant and adult RMs) is on record as “most significantly upregulated”. The “Genes downregulated following AZD5582 treatment” value in assay [1] (setting [2]) turned out to be 176 genes. Further, the “Genes upregulated following AZD5582 treatment” value in assay [1] (setting [2]) came to 855 genes. The “Genes differentially expressed following AZD5582 treatment” value in assay [1] (infant RMs, CD4+ T cells, post-dose 10 vs pre-dose 1, FDR 5%, linear fold change 50%) was 1,031 genes. In addition, the “Expression of RELB, NFKB2 and NFKBIA in CD4+ T cells” value in assay [1] (treated infant RMs) is listed as “did not observe increased expression”. Moreover, the “Mean Ki67 expression in peripheral memory CD4+ T cells” value was 28.4% in the assay with memory CD4+ T cells (3-days post-AZD5582 (doses 1, 3, 6, 9), P = 0.02) and 21.0% in the assay with memory CD4+ T cells (setting [4]). The “Ki67 expression in memory CD4+ T cells” value was determined as 46.9% with memory CD4+ T cells (7 days following dose 1) and 8.7% with memory CD4+ T cells (setting [3]). Further, the “Other markers of activation, including HLA-DR and PD-1” value in the assay with memory CD4+ T cells (T cells following AZD5582 treatment, infant RMs) is reported as “did not observe increases”. Further, in the assay with memory CD4+ T cells (setting [5]), the “Average increase of Ki67 expression in memory CD4+ T cells after dose 1” value was found to be 24.3%. In addition, the “Mean Ki67 expression in peripheral memory CD8+ T cells” value was found to be 26.5% in the assay on memory CD8+ T cells (3-days post-AZD5582 (doses 1, 3, 6, 9), P = 0.03) and 18.2% in the assay with memory CD8+ T cells (setting [4]). Further, the “Ki67 expression in memory CD8+ T cells” value with memory CD8+ T cells (7 days following dose 1) turned out to be 46.7%; with memory CD8+ T cells (setting [3]), 5.1%. Moreover, the “Average increase of Ki67 expression in memory CD8+ T cells after dose 1” value in the assay with memory CD8+ T cells (setting [5]) came to 23.3%. For the same compound, the “SIV reactivation, events >60 copies/ml” value with SIVmac239 is listed as 64/140. For the same compound, the “SIV reactivation, events >60 copies/ml (percent)” value in the assay on SIVmac239 is 46%. The “SIV reactivation, per animal (RMs with on-ART viremia)” value in the assay on SIVmac239 is 5/9. For the same compound, in the assay on SIVmac239, the “SIV reactivation, per animal (percent)” value is 56%.

These data come from publication PMC9006931, “Altered Response Pattern following AZD5582 Treatment of SIV-Infected, ART-Suppressed Rhesus Macaque Infants” (Journal of Virology, 2022).
